Take `O=CN(O)C(CS(=O)(=O)c1ccccc1Oc1ccc(OC(F)(F)F)cc1)C(CO)CO` (stereo unspecified): the melting point lay in the range of 129 to 131 °C.

As to `O=C(O)C(=O)c1cn2c3c(cccc13)CCC2`, the melting point is 152 to 155 °C.

`CC[C@H](CC(=O)NC(=O)OC)Nc1ccc(C(F)(F)F)cc1` came in with a melting point of 142 °C. `CN(CCCNc1ncc(Cc2ccccc2)c(=O)[nH]1)c1ccccn1` displayed a melting point of 75 to 85 °C. As to `NC(=O)Oc1ccccc1-c1nc2ccc(OCc3c(F)cccc3F)cc2s1`, the melting point was 216 °C. In the case of `O=C1Nc2ccccc2C(c2ccccc2)=NC1NC(=S)c1cccc(C(F)(F)F)c1` (racemic) it was 230 to 232 °C.

Turning to `CCCCN(C=Nc1nnnc2c1ncn2C1CC(O)C(CO)O1)CCCC` (stereo unspecified), the melting point was 107 to 109 °C. `CC(N)CN(C)C(=O)c1ccccc1` (stereo unspecified) showed a melting point of 102 °C. Regarding `Nc1cc(OCc2cccc(Cl)c2)c(C(=O)O)cc1Cl`, the melting point lay in the range of 182 to 184 °C.

`COC(=O)C=C(Nc1cc(CCO)c([N+](=O)[O-])cc1OCc1ccccc1)C(F)(F)F` returned a melting point of 72 to 74 °C.

`CCCCc1nc(Cl)c(C(=O)O)n1Cc1ccc(-c2ccccc2-c2c(O)c(=O)c2=O)cc1` yielded a melting point of 168 °C. To `CCCC(=O)N(Cc1cccc2c1S(=O)(=O)N=C2C1=C(O)C(C(C)(C)C)N(Cc2ccc(F)c(C)c2)C1=O)S(C)(=O)=O` (stereo unspecified) belongs 226 °C.

Consider `O=C(O)c1cccc(-c2ccc3c(c2)N(c2ccc(Cl)c(Cl)c2)CC3)c1`, for which the melting point lay within 205 to 206 °C. In the case of `COc1ccc(-c2[nH]nc3c2C(=O)c2c(NC(=O)CN4CCC(CN)CC4)cccc2-3)cc1` it was > 300 °C; in that of `CC(=O)NCc1cccc(Nc2nccc(-c3sc(NCc4ccccc4)nc3C)n2)c1`, 181 to 183 °C; in that of `COc1ccc(CC(=O)c2ccc(OC)c(F)c2)cc1F`, 151 to 152 °C. In the case of `COC(=O)c1cc(N2C(=O)CCC2=O)c(Cl)c(S(N)(=O)=O)c1` it was 195 to 196 °C; in that of `Nc1ccnc(Cl)c1Cl`, 146 to 148 °C. Compound `COc1c(OC)c(OC)c2c(=O)cc(-c3ccc(O)cc3)oc2c1OC` had a melting point of 187 to 188 °C.

As to `COC(=O)c1sc2c(c1O)CN(C(=O)OC(C)(C)C)CC2`, the melting point lay within 84.5 to 86 °C. Compound `COc1cc2c(cc1C(F)(F)F)N(C(=O)Nc1ccc3c(ccn3Cc3cccnc3)c1)CC2` returned a melting point of 243 to 246 °C. In turn, `CC(C)C(c1ccc2[nH]c(=O)cnc2c1)n1ccnc1` (stereo unspecified) had a melting point of 194 °C. In the case of `Cn1c(=O)n(O)c(=O)c2cc(F)c(F)cc21` it was 239 to 241 °C. Turning to `COC(=O)c1ccc(COc2c(C)c(C)c3c(c2C)C(c2ccc(C(C)C)cc2)C(C)(C)O3)cc1` (stereo unspecified), the melting point lay in the range of 108 to 110 °C. To `Brc1ccc2sc(-c3ccccc3)c(N3CCN(Cc4ccccc4)CC3)c2c1` belongs 156 to 157 °C; to `OC(CNC1=NCCN1)c1ccc(Cl)cc1` (stereo unspecified), 156 to 158 °C. On to `O=c1cc(O)c2c([nH]1)CCCC2`, for which the melting point was > 300 °C. To `CN1C(=O)C2(COc3cc4c(cc32)OCCO4)c2c(NC(=O)NC3CCCCC3)cccc21` (stereo unspecified) belongs 175 to 177 °C; to `O=C(CNC(=O)c1ccc([N+](=O)[O-])c(I)c1)OCc1ccccc1`, 98 to 100 °C; to `CCN(CCO)CCCNc1ncc2cc(-c3c(Cl)cccc3Cl)c(N)nc2n1`, 201 to 204 °C. In the case of `Brc1ccc(C=Cc2cc3ccccc3s2)s1` it was 171 to 172 °C; in that of `CCOC(=O)C1C(c2ccc(OC)cc2)=NCC1c1ccc2c(c1)OCO2` (stereo unspecified), 80 to 81 °C. For `c1ccc2c(c1)CCc1ccccc1C2CCN1CCCC1`, the melting point was 51 to 53 °C.

On to `O=C(NCC1CCN(C[C@H]2COc3ccc(Cl)cc3O2)CC1)c1cccc2cccnc12`, for which the melting point lay within 51 to 54 °C. In the case of `CC1=C(C(=O)Nc2cc(Cl)ccc2Cl)SC2=NCCN21` it was 217 to 219 °C; in that of `CCOC(=O)Cc1c([N+](=O)[O-])cc(OCc2ccccc2)c2ccccc12`, 128 to 130 °C; in that of `C=C(c1ccc(C(=O)O)cc1)C(O)(Cn1cncn1)c1ccc(F)cc1F` (stereo unspecified), 189 to 190 °C.

`O=C(Cc1ccc(OCc2cccc(C(=O)O)c2)cc1)NC1(C(=O)O)Cc2ccc(-c3ccc(Cl)cc3)cc2C1` (stereo unspecified) showed a melting point of 220 to 222 °C. Regarding `CCOC(=O)/C=C/c1ccc(OCCOC2CC2)cc1Oc1ncc(C(F)(F)F)cc1Cl`, the melting point fell in the range of 75.4 to 75.9 °C. To `CCCCOCC1OC(n2c(Cl)nc3cc(Cl)c(Cl)cc32)C(O)C1O` (stereo unspecified) belongs 70 to 72 °C. Consider `Sc1nccn1Cc1ccsc1`, for which the melting point lay in the range of 130 to 131 °C. To `CCC(C)Cc1ccc(C(=O)O)cc1Br` (stereo unspecified) belongs 78.8 to 79.7 °C. In the case of `CC(C)[C@H](NC(=O)OCc1csc(N2CCCC2)n1)C(=O)N[C@@H](Cc1ccccc1)[C@@H](O)C[C@H](Cc1ccccc1)NC(=O)OCc1cncs1`, the melting point was 165 to 167 °C.

In turn, `Nc1c(Cl)cc(C(=O)NC2CCNCC2)c2c1CCO2` yielded a melting point of 190 °C.

`Cc1nc2ccc(C(=O)NS(=O)(=O)c3ccccc3)nc2n1Cc1ccc(CCc2ccccc2)cc1Cl` registered a melting point of 180 to 181 °C. In the case of `COP(=O)(CC1(O)O[C@H](COCc2ccccc2)[C@@H](OCc2ccccc2)[C@H](OCc2ccccc2)[C@H]1OCc1ccccc1)OC` (stereo partly specified) it was 112 to 113 °C; in that of `O=C(C=Cc1cccs1)C=Cc1cccs1`, 115 to 117 °C. To `Cc1cc(C2=NN(c3nccs3)[C@H](C)Cc3cc4c(cc32)OCO4)cc(C)c1[N+](=O)[O-]` belongs 167 °C; to `Cc1nc(N2CCC(Cc3ccc(C(F)(F)F)cc3)C2=O)sc1C(=O)NCc1ccc(F)cc1` (stereo unspecified), 175 to 176 °C; to `COc1ccc(C2(C34CC5CC(CC(C5)C3)C4)N=C(N)N(C)C2=O)cc1OC` (stereo unspecified), 130 °C. To `N#Cc1ccc(N2CCOCC2)c2ccccc12` belongs 128 to 129 °C; to `CC=CCOc1ccc(C)c2c1C(=O)CC2`, 87.5 to 92 °C. `CC(C)(C)c1nc(Cl)c2ccccc2c1-c1ccccc1` registered a melting point of 139 to 140 °C.

As to `COc1ccc(S(=O)(=O)Nc2cc(C)c(S(=O)(=O)C[N+](=O)[O-])c(C)c2)cc1`, the melting point was in the range of 141 to 142 °C. `O=C(NCc1ccccc1)c1cc2c(-c3ccccc3)n[nH]c2s1`: the melting point fell in the range of 98 to 101 °C. In the case of `Cc1noc(C)c1Cn1cc(NC(=O)Cc2ccccc2)cn1` it was 106 to 108 °C; in that of `COc1cc(Nc2c(C#N)cnc3cc(-c4cc5ccccc5o4)ccc23)c(Cl)cc1Cl`, 276 to 277 °C; in that of `CCOC(=O)c1c(N2CCN(CCO)CC2)c2cc(Cl)ccc2[nH]c1=O`, 130 to 134 °C. Compound `CC(C)(C)OC(=O)N(C(=O)OC(C)(C)C)c1c(C#N)csc1C(=O)O` displayed a melting point of 159 to 160 °C. Compound `CC(=O)OC1(C(C)=O)CCC2C3C=C(Cl)C4=CC(=O)OC(O)C4(C)C3CCC21C` (stereo unspecified) returned a melting point of 276 to 278 °C. To `COc1ccc(CNc2nnc(Cl)c3ccc(C#N)cc23)cc1Cl` belongs 213 to 214 °C. To `CCCCc1nn(Cc2ccc(-c3ccccc3-c3nnn[nH]3)cc2)c(=O)n1Cc1ccc(-c2ccccc2-c2nnn[nH]2)cc1` belongs 150 to 151 °C; to `O=C(O)c1cc2cc(Cl)ccc2nc1N[C@@H](Cc1ccc(O)cc1)C(=O)O`, 176 to 188 °C. Compound `Cn1c(=O)cc(-c2cccc(Cl)c2)c2cc(C(=O)c3ccc([N+](=O)[O-])cc3)ccc21` displayed a melting point of 174 °C. With `CC(=O)OC1CSC(Oc2ccc(-c3ccnc(F)c3)nc2)C(OC(C)=O)C1OC(C)=O` (stereo unspecified), the melting point was determined as 179 °C. To `CC(=O)NCCn1ccc2c1-c1ccccc1CC2` belongs 95 to 96 °C; to `O=C(C=Cc1cccnc1)NCCCOC1CCN(Cc2ccccc2)CC1`, 100 to 102 °C. To `Cc1oc(-c2ccccc2)nc1COc1cccc(COc2cccc(CC(=O)O)c2)n1` belongs 97 to 98 °C; to `O=C1NCCc2c(OCCc3ccccc3)cccc21`, 149 to 150 °C; to `CC12CCC3C(CCC4CC5OC5CC43C)C1CC(N1CCCC1)C2=O` (stereo unspecified), 146 °C. In the case of `CC(C)c1ccc2c(c1)c(S(=O)(=O)c1ccccc1C(C)C)c(CC(C)(C)C(=O)O)n2Cc1ccc(Cl)cc1` it was 181 to 182 °C; in that of `CC(=O)OCC1CCn2c(c(C3=C(c4coc5ccccc45)C(=O)NC3=O)c3ccccc32)C1` (stereo unspecified), 234 to 237 °C; in that of `Cc1c(CC(=O)OCCCCO)cc(-c2ccc(S(C)(=O)=O)cc2)n1-c1ccc(F)cc1`, 149 to 151 °C.

For the compound `Cc1c(CO)c(CO)c2n1-c1ccccc1C2`, the melting point was 123 to 125 °C. `CCCCc1ncc(CO)n1Cc1ccccc1Cl` came in with a melting point of 86 to 88 °C.

`Oc1c(S)cc(I)cc1I` returned a melting point of 178 to 180 °C.

In turn, `CC(=NO)C(C)(C)NCCCNC(C)(C)C(Cn1cc(C)nc1[N+](=O)[O-])=NO` registered a melting point of 140 to 141 °C. In turn, `O=C(O)CCc1c(-c2ccccc2)noc1O` showed a melting point of 183 to 184 °C. In the case of `Cn1cnnc1COc1nn2c(-c3ccccc3)nnc2cc1-c1ccccc1` it was 230 to 235 °C. In turn, `COCc1noc(N2CCC([C@H]3C[C@H]3CCOc3ccc(S(C)(=O)=O)cn3)CC2)n1` came in with a melting point of 68 to 70 °C. In turn, `CCCCCCCCCCCCCCCCCCOc1cn(-c2ccccc2)c(CO)cc1=O` gave a melting point of 67 to 72 °C. In turn, `O=C(OC(c1ccccc1)c1ccccc1)C(NC=S)c1ccccc1` (stereo unspecified) registered a melting point of 129 to 130 °C. In the case of `O=C(CCCCCBr)c1ccccc1` it was 35 to 36 °C; in that of `CS(=O)(=O)Nc1ccc(-c2cc(-c3c(-c4cccc(Cl)c4)nc4ccccn34)ccn2)cc1`, 60 °C.

Turning to `COc1cc([N+](=O)[O-])ccc1-c1cnc(C)s1`, the melting point lay within 114 to 117 °C.

`O=C(Nc1ccc(Oc2ccnc(N3CCCC3)n2)c2ccccc12)c1cc(F)cc(N2CCCCC2)c1` had a melting point of 111 to 113 °C.

These data come from a melting point compilation (Tetko et al.; mined from patent text by program, amines drawn as free bases though some values may be those of a salt).
